Converted amounts (≈) assume the structure as drawn. Where two headings read alike, the source gives them in different places.
Key:
[1] = system: P. lutzii Pb01 yeast cells; assay: Inhibition and sensitivity assay, P. lutzii Pb01 yeast cells growth (broth macro dilution / spot on MMcM agar); assay type: cell-based, Paracoccidioides lutzii; conditions: for MIC: read-out: minimal inhibitory concentration; for effect on P. lutzii Pb01 yeast cells growth: glucose or acetate as carbon source, 9 to 72 µg/mL
Procedure: Inhibition assays were performed by broth macro dilution method according to NCCLS M27-A2 guidelines with modifications. For the inhibition assays, yeast cells in their exponential growth phase were kept on solid MMcM for seven days at 36°C and inoculated in liquid MMcM medium. Sterile stock solution of the argentilactone, reduced argentilactone, epoxy argentilactone and diol argentilactone were freshly prepared in water and dimethyl sulfoxide (DMSO). Serial dilutions from stock solutions were prepared with sterile MMcM medium as the diluent, to yield final compound concentrations ranging from 9 to 72 µg/mL. Drug-free controls were included. Inocula concentrations were determined spectrophotometrically at 520 nm. The mixture was vortexed to disperse the aggregated cells. P. lutzii Pb01 was grown at 36°C, 200 rpm shaking for 10 days. For the sensitivity assay, 7-day-old P. lutzii Pb01 yeast cells were grown in liquid MMcM overnight at 36°C. Samples containing 10^5, 10^4, and 10^3 cells were spotted onto MMcM agar medium supplemented with argentilactone, reduced argentilactone, epoxy argentilactone, or diol argentilactone at concentrations of 9 µg/mL, 18 µg/mL, 36 µg/mL, or 72 µg/mL. […] The plates were incubated for 6 days at 36°C before being photographed.

PbICLc = PbICLc (Paracoccidioides lutzii, UniProt C1H8F5); assay: Enzymatic activity of native PbICL in crude protein extract of yeast cells (PbICLc); assay type: biochemical; conditions: for inhibition of native PbICL activity: crude extract of yeast cells; for Specific activity PbICLc Acetate: crude extract of yeast cells grown on acetate, control 0.080±0.004; for Specific activity PbICLc Acetate / Specific activity PbICLc Glucose / IC50 / IC50 PbICLc Acetate / IC50 PbICLc Glucose: N.I. = No inhibition found; for Specific activity PbICLc Glucose: crude extract of yeast cells grown on glucose, control 0.010±0.002; for IC50 / IC50 PbICLc Acetate / IC50 PbICLc Glucose: crude extract
PbICLc, sequence (C1H8F5 entry or part of it): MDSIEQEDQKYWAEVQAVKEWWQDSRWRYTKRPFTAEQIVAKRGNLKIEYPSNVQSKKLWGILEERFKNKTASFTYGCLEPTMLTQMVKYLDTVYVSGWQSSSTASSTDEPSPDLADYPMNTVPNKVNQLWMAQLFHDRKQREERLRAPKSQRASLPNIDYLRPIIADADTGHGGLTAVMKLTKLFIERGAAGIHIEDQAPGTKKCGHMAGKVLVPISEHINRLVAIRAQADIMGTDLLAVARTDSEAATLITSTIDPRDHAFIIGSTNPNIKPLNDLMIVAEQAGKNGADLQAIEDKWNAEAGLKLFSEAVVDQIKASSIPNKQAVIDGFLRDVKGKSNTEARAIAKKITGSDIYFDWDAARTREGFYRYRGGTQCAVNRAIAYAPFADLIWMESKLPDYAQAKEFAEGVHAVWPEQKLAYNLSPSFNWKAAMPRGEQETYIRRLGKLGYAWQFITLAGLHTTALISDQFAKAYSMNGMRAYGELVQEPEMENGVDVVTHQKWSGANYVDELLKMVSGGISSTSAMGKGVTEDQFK
Procedure: P. lutzii Pb01 yeast cells grown for 24 h in liquid minimal MMcM medium containing glucose or acetate as the carbon source were centrifuged for 5 min at 2.500×g. The proteins were extracted as previously described. The cells were washed with sterilized water and frozen in liquid nitrogen. The material was ground to a fine powder; resuspended in 500 µL of 50 mM potassium phosphate buffer (pH 7.0) supplemented with 1 mM dithiothreitol (DTT) and vigorously mixed with glass beads for 20 min at 4°C. The cell debris was removed by centrifugation for 15 min at 4°C and 5,000×g, and the supernatant was centrifuged for 15 min at 4°C and 12,000×g. The cell-free extract was used for the ICL activity assays or stored at −20°C for further analyses. Quantification of the protein content was performed according to Bradford.
(§1) ICL activity was determined according to Cruz et al.. Reactions were performed in 1 mL assay volume containing 2 mM threo-D,L-isocitrate (effective concentration of threo-D-isocitrate 1 mM), 2 mM MgCl2, 10 mM phenylhydrazine HCl, 2 mM dithiothreitol, and 50 mM Tris HCl buffer (pH 7.0). The product glyoxylate-phenylhydrazone was followed at 324 nm using an extinction coefficient of 16.8 mM^−1.cm^−1. One unit of enzyme activity was defined as the formation of 1 µmol of glyoxylate-phenylhydrazone per minute using threo-D,L-isocitrate as the substrate. The specific activities were given as U.mg^−1 protein.
(§2) The compound concentrations were 10 µM, 20 µM, 30 µM, and 40 µM for recombinant PbICL and 30 µM, 40 µM, 50 µM, 60 µM, 70 µM, 80 µM and 90 µM for native PbICL. 3-nitropropinate (50.7 µM) was used as positive control. To the assays of specific activity of PbICL from mycelium, transition, and yeast, the cells were cultured for 10 days on 23°C and 36°C, and were used 18 µg/mL of argentilactone.

PbICLr = PbICLr (Paracoccidioides lutzii, UniProt C1H8F5); assay: Enzymatic activity of recombinant isocitrate lyase (PbICLr); assay type: biochemical; conditions: for Specific activity PbICLr: control 2.55±0.02
PbICLr, sequence (C1H8F5 entry or part of it): as above
Procedure: Recombinant PbICL protein was obtained as described by Cruz. Briefly, Pbicl cDNA was inserted into the pET-32a (+) expression vector (Novagen, Inc,). The resulting plasmid was transformed into E. coli BL21 C43 (DE3) cells, and expression was induced at an A600 of 0.6 by the addition of 1 mm (final concentration) isopropyl thio-β-D-galactoside (IPTG) (Sigma-Aldrich). After induction, the cells were incubated for another 2 h at 36°C with shaking at 200 rpm. The cells were harvested by centrifugation at 10,000×g for 5 min at 4°C and resuspended in 1 × NaCl/Pi buffer. After incubation for 30 min with 100 µg/mL lysozyme, the cells were lysed by extensive sonication. The sample was centrifuged at 4°C and 8,000×g for 15 min, and the supernatant, which contained the soluble protein fraction, was collected. His-tagged ICL was purified using the Ni-NTA Spin Kit (Qiagen), and the tags were subsequently removed by the addition of EKMax™ enterokinase (Invitrogen).
as §1, §2

[2] = system: P. lutzii Pb01 differentiation from mycelium to yeast; assay: Transition from mycelium to yeast (dimorphism); assay type: cell-based, Paracoccidioides lutzii; conditions: glucose or acetate; 10 days at 36°C
Procedure: The differentiation from mycelium to yeast was performed in Mc Veigh and Morton (MMcM) liquid minimal medium containing glucose (0.11 M) or acetate (0.28 M) as the carbon source. The cultivation temperature was changed from 23°C to 36°C to allow the mycelium to yeast transition. The cells were previously grown in liquid medium for 18 h before changing the incubation temperature, which was maintained for 10 days. The appearance of yeast cells was monitored using a Neubauer chamber.

dermatophytes = system: dermatophytes; set-up: method as in doi:10.1590/S0103-50532004000500023; conditions: cited from earlier work
[3] = system: P. lutzii Pb01 yeast cells; assay: Viability assay of P. lutzii Pb01 yeast cells (Neubauer chamber); assay type: cell-based, Paracoccidioides lutzii; conditions: 18 µg/mL, after 6 h of incubation
Procedure: P. lutzii Pb01 yeast cells were sub-cultured every 7 days in solid Fava-Netto’s medium at 36°C. For viability experiments, yeast cells were kept in liquid McVeigh Morton (MMcM) chemically defined medium for 6 h at 36°C and viability of the cells determined by counting viable cells in a Neubauer chamber. All experiments were performed in triplicate.

MRC5 cells = assay: Toxicity to MRC5 cells; assay type: cell-based; conditions: 18 µg/mL; data not shown
PbICL = PbICL activity from phases of P. lutzii Pb01 cultured with argentilactone; assay type: biochemical, Paracoccidioides lutzii; conditions: for PbICL specific activity: treated with 18 µg/mL; for inhibition of PbICL: 18 µg/mL, over the phases
Procedure: as §1, §2

[4] = read-out: IC50 PbICLc Acetate, acetate
[5] = read-out: IC50 PbICLc Glucose, glucose
[6] = recombinant enzyme, N.I. = No inhibition found

CCCCCCCC1CC=CC(=O)O1 (stereo in doubt) [Reduced argentilactone, 2H-Pyran-2-one, 6-heptyl-5,6-dihydro-, (6R)]
MIC ([1]; acetate as carbon source): 9 µg/mL (≈ 45.9 µM) | MIC ([1]; glucose as carbon source): 18 µg/mL (≈ 91.7 µM) | effect on P. lutzii Pb01 yeast cells growth [1]: dose-dependent inhibition | inhibition of native PbICL activity (PbICLc): inhibited | Specific activity PbICLc Acetate (PbICLc): 0.067±0.004 U/mg | Specific activity PbICLc Glucose (PbICLc): 0.009±0.003 U/mg | IC50 (PbICLc; [4]): 60 ± 0.02 µM | IC50 (PbICLc; [5]): 85 ± 0.01 µM | IC50 (PbICLr): 30.2 ± 0.04 µM | Specific activity PbICLr (PbICLr; [6]): 0.93±0.01 U/mg | inhibition of the dimorphism mycelium to yeast [2]: the effect was reduced

O=C(O)CC[N+](=O)[O-] [3-Nitropropionate, reference compound]
Specific activity PbICLc Acetate (PbICLc): 0.036±0.002 U/mg | Specific activity PbICLc Glucose (PbICLc): 0.008±0.001 U/mg | IC50 (PbICLc; acetate, read-out: IC50 PbICLc Acetate): 45.4 ± 0.01 µM | IC50 (PbICLc; glucose, read-out: IC50 PbICLc Glucose): 76 ± 0.01 µM | Specific activity PbICLr (PbICLr; [6]): 0.81±0.01 U/mg | IC50 (PbICLr; recombinant enzyme, N.I. = No inhibition found, read-out: IC50 PbICLr): 25.7 ± 0.01 µM

CCCCC/C=C\[C@H]1CC=CC(=O)O1 [Argentilactone, 2H-Pyran-2-one, 6-(1-heptenyl)-5,6-dihydro-, [R-(Z)]]
MIC ([1]; acetate as carbon source): 9 µg/mL (≈ 46.3 µM) | MIC ([1]; glucose as carbon source): 18 µg/mL (≈ 92.7 µM) | effect on P. lutzii Pb01 yeast cells growth [1]: dose-dependent inhibition | minimal inhibitory concentration (dermatophytes): 31 µg/mL (≈ 160 µM) | decrease of viability [3]: approximately 15% | inhibition of native PbICL activity (PbICLc): inhibited | Specific activity PbICLc Acetate (PbICLc): 0.040±0.001 U/mg | IC50 (PbICLc; [4]): 50 ± 0.03 µM | IC50 (PbICLc; [5]): 80 ± 0.02 µM | toxicity to MRC5 cells (MRC5 cells): not toxic | IC50 (PbICLr): 28.8 ± 0.01 µM | Specific activity PbICLr (PbICLr; [6]): 0.86±0.01 U/mg | PbICL specific activity (PbICL; Mycelium to Yeast, Acetate): 0.055±0.003 U | PbICL specific activity (PbICL; Mycelium to Yeast, Glucose): 0.055±0.001 U | PbICL specific activity (PbICL; Mycelium, Acetate): 0.055±0.005 U | PbICL specific activity (PbICL; Mycelium, Glucose): T 0.045±0.001 U | PbICL specific activity (PbICL; Yeast, Acetate): 0.120±0.003 U | PbICL specific activity (PbICL; Yeast, Glucose): 0.085±0.001 U | inhibition of PbICL (PbICL; acetate): ~45% | inhibition of PbICL (PbICL; glucose): ~30% | inhibition of the dimorphism mycelium to yeast [2]: dose-dependent inhibition

CCCCC[C@@H](O)[C@H](O)[C@H]1CC=CC(=O)O1 [Diol argentilactone, 2H-Pyran-2-one, 6-(1,2-dihydroxyheptyl)-5,6-dihydro-, [6R-(1S, 2R)]]
effect on P. lutzii Pb01 yeast cells growth [1]: very small effect | inhibition of native PbICL activity (PbICLc): No inhibition | Specific activity PbICLc Acetate (PbICLc): N.I. ^** | Specific activity PbICLc Glucose (PbICLc): N.I. ^** | IC50 PbICLc Acetate (PbICLc; acetate): N.I. ^** | IC50 PbICLc Glucose (PbICLc; glucose): N.I. ^** | effect against PbICLr (PbICLr; recombinant enzyme): no effect | IC50 PbICLr (PbICLr; [6]): N.I. ^** | Specific activity PbICLr (PbICLr; [6]): N.I. ^** | inhibition of the dimorphism mycelium to yeast [2]: did not interfere

CCCCCC1OC1C1CC=CC(=O)O1 [Epoxi argentilactone, 2H-Pyran-2-one, 5,6-dihydro-6-[(2S, 3S)-3-pentyl-2-oxiranyl] -, (6R)]
effect on P. lutzii Pb01 yeast cells growth [1]: very small effect | inhibition of native PbICL activity (PbICLc): No inhibition | Specific activity PbICLc Acetate (PbICLc): N.I. ^** | Specific activity PbICLc Glucose (PbICLc): N.I. ^** | IC50 PbICLc Acetate (PbICLc; acetate): N.I. ^** | IC50 PbICLc Glucose (PbICLc; glucose): N.I. ^** | effect against PbICLr (PbICLr; recombinant enzyme): no effect | IC50 PbICLr (PbICLr; [6]): N.I. ^** | Specific activity PbICLr (PbICLr; [6]): N.I. ^** | inhibition of the dimorphism mycelium to yeast [2]: did not interfere
